This note sets out measurements from patent publication US20200288710A1, “SUBSTITUTED SULPHONAMIDES FOR CONTROLLING ANIMAL PESTS” (BAYER CROPSCIENCE AKTIENGESELLSCHAFT, priority 2016, published 2020).

Holding throughout (format): in vivo
Assay [1] concerns Myzus persicae. In words: Myzus persicae oral test. The conditions noted are these: 120 h, 20 ppm, oral uptake, after 5 days, read-out: efficacy. The gist of the method:
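Compound dissolved in acetone, diluted in water, then mixed 50:150 μl with IPL41 insect medium (33%+15% sugar). Mixed-population green peach aphids feed through a parafilm seal on the solution; mortality scored as % efficacy after 5 days (100% = all killed).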

A further assay deals with Meloidogyne incognita. In words: Meloidogyne incognita test. The conditions noted are these: 336 h, lettuce, after 14 days, read-out: nematicidal efficacy (formation of galls). In short, it runs like this: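 Active compound in acetone, diluted with water, added to sand-filled vessels with M. incognita eggs/larvae and lettuce seeds. After 14 days, efficacy scored by root gall formation: 100% = no galls, 0% = galls equal to untreated control.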

Assay [2] relates to Myzus persicae. Nature of the assay: Myzus persicae spray test (Chinese cabbage leaf discs). The conditions noted are these: foliar, 120 h, after 5-6 days, read-out: efficacy. The gist of the method: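 Chinese cabbage leaf discs infested with all stages of green peach aphid were sprayed with compound formulated in acetone/DMF and emulsifier-containing water. Efficacy in % was scored after 5-6 days, with 100% meaning all aphids killed and 0% none killed.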

For the molecule `Cc1ccccc1S(=O)(=O)NC(=O)c1cn(C)c(-c2cc(F)ccc2F)n1` [Example 520], the pest or weed control at 20 ppm in the assay with Myzus persicae [1] and with Meloidogyne incognita was 100% in each case. Moreover, the pest or weed control at 500 g/ha with Myzus persicae [2] amounted to 90%.

`CCc1[nH]c(-c2cccc(C(C)C)c2)nc1C(=O)NS(=O)(=O)c1ccccc1Cl` [Example 613]: the pest or weed control at 20 ppm is 100% with Myzus persicae [1] and 90% in the assay with Meloidogyne incognita. In the assay with Myzus persicae [2] (100 g/ha), the pest or weed control at 100 g/ha worked out at 90%.

`Cn1cc(C(=O)NS(=O)(=O)c2ccccc2Cl)nc1-c1sccc1Cl` [Example 547]: the values for the pest or weed control at 20 ppm with Myzus persicae [1] and in the assay with Meloidogyne incognita were 90% and 100%, respectively. In addition, the pest or weed control at 500 g/ha with Myzus persicae [2] worked out at 90%.

As for `Cn1cc(C(=O)NS(=O)(=O)c2ccc(Br)cc2Cl)nc1-c1c(F)cccc1F` [Example 440], the pest or weed control at 20 ppm in the assay with Myzus persicae [1] and in the assay on Meloidogyne incognita was 100% throughout. The pest or weed control at 500 g/ha with Myzus persicae [2] stood at 100%.

On to `Cn1cc(C(=O)NS(=O)(=O)c2ccccc2Cl)nc1-c1cccc(F)c1F` [Example 512], for which the pest or weed control at 20 ppm amounted to 100% in the assay on Myzus persicae [1] and 90% in the assay on Meloidogyne incognita. In the assay on Myzus persicae [2], the pest or weed control at 500 g/ha is 90%.

With `Cn1cc(C(=O)NS(=O)(=O)c2ccccc2OC(F)(F)F)nc1-c1ccccc1Cl` [Example 55], the pest or weed control at 20 ppm with Myzus persicae [1] stood at 100%; in the assay with Meloidogyne incognita, 90%. Further, in the assay on Myzus persicae [2], the pest or weed control at 500 g/ha came to 90%.

As to `Cn1cc(C(=O)NS(=O)(=O)c2cccc(F)c2F)nc1-c1c(F)cccc1F` [Example 320], the pest or weed control at 20 ppm with Myzus persicae [1] worked out at 100%; with Meloidogyne incognita, 90%. In the assay with Myzus persicae [2], the pest or weed control at 500 g/ha was found to be 100%.

Take `Cn1cc(C(=O)NS(=O)(=O)c2c(Cl)cccc2Cl)nc1-c1c(F)cccc1F` [Example 93]: the pest or weed control at 20 ppm with Myzus persicae [1] is 100%; with Meloidogyne incognita, 90%. In addition, the pest or weed control at 500 g/ha in the assay on Myzus persicae [2] turned out to be 90%.

For `CCn1cc(C(=O)NS(=O)(=O)c2ccccc2Cl)nc1-c1ccccc1Cl` [Example 67], the figures for the pest or weed control at 20 ppm in the assay on Myzus persicae [1] and with Meloidogyne incognita were 100% and 90%, respectively. Moreover, the pest or weed control at 500 g/ha in the assay with Myzus persicae [2] stood at 90%.

On to `Cn1cc(C(=O)NS(=O)(=O)c2c(Cl)cccc2Cl)nc1-c1ncccc1Cl` [Example 588], for which the results for the pest or weed control at 20 ppm with Myzus persicae [1] and with Meloidogyne incognita were 100% and 90%, respectively. Besides, the pest or weed control at 500 g/ha with Myzus persicae [2] is 90%.

`Cn1cc(C(=O)NS(=O)(=O)c2cccc3c2OCC3)nc1-c1c(F)cccc1F` [Example 317]: the pest or weed control at 20 ppm was determined as 100% in the assay on Myzus persicae [1] and 90% in the assay with Meloidogyne incognita. For the same molecule, the pest or weed control at 500 g/ha in the assay with Myzus persicae [2] was found to be 90%.

As to `COc1ccc(Cl)c(S(=O)(=O)NC(=O)c2cn(C)c(-c3cccc(Cl)c3Cl)n2)c1` [Example 554], the pest or weed control at 20 ppm with Myzus persicae [1] was 100%; in the assay on Meloidogyne incognita it was 90%. Besides, the pest or weed control at 500 g/ha in the assay with Myzus persicae [2] turned out to be 90%.

Regarding `CSc1cccc(Cl)c1S(=O)(=O)NC(=O)c1cn(C)c(-c2ccccc2Cl)n1` [Example 422], the pest or weed control at 20 ppm was determined as 100% in the assay with Myzus persicae [1] and 90% with Meloidogyne incognita. Moreover, in the assay with Myzus persicae [2], the pest or weed control at 500 g/ha was determined as 90%.

As to `Cc1[nH]c(-c2ccc(Cl)cc2)nc1C(=O)NS(=O)(=O)C(C)C` [Example 235], the pest or weed control at 20 ppm came out at 100% in the assay with Myzus persicae [1] and 90% in the assay with Meloidogyne incognita. Moreover, in the assay on Myzus persicae [2], the pest or weed control at 500 g/ha was 100%.

Consider `Cn1cc(C(=O)NS(=O)(=O)c2c(F)cccc2Cl)nc1-c1c(F)cccc1F` [Example 431], for which the pest or weed control at 20 ppm with Myzus persicae [1] was 100%; with Meloidogyne incognita, 90%. Further, the pest or weed control at 500 g/ha in the assay on Myzus persicae [2] came out at 90%.

In the case of `COc1cc(C(=O)NS(=O)(=O)c2c(Cl)cccc2Cl)nn1-c1ccccc1Cl` [Example 270], the pest or weed control at 20 ppm in the assay on Myzus persicae [1] and with Meloidogyne incognita was 100% each time. For the same molecule, in the assay with Myzus persicae [2], the pest or weed control at 500 g/ha stood at 90%.
